Data set [1] can be described thus: Inhibition of influenza A/PR/8/34(H1N1) virus sialidase after 10 mins by fluorometric assay. Set-up: species or system Influenza A virus (A/Puerto Rico/8/1934(H1N1)).
The nature of data set [2]: Inhibition of influenza A/Guizhou/54/89(H3N2) virus sialidase after 10 mins by fluorometric assay. On the set-up: species or system Influenza A virus (A/Guizhou/54/89(H3N2)).
A short description of data set [3]: Inhibition of influenza B/Ibaraki/2/85 virus sialidase after 10 mins by fluorometric assay. On the set-up: species or system Influenza B virus (B/Ibaraki/2/85).
A further data set concerns MDCK. In words: Cytotoxicity in influenza A/PR/8/34 virus infected MDCK cells after 3 days by MTT assay. Type of data set: cell-based, Canis lupus familiaris. The conditions noted are these: dog, 72 h.
Data set [4] concerns Influenza A virus. In words: Inhibition of influenza virus A/PR/8/34(H1N1) proliferation on MDCK cells at 12.5 ug/mL. Type of data set: functional, organism-based. The conditions noted are these: A/Puerto Rico/8/1934(H1N1).
For data set [5], the system named is Influenza A virus. In words: Antiinfluenza virus activity in mouse infected with influenza virus A/PR/8/34(H1N1) assessed as survival rate at 0.5 mg/kg administered intranasally after 10 days. Type of data set: functional, A/Puerto Rico/8/1934(H1N1).
Data set [6] concerns Influenza A virus (A/Puerto Rico/8/1934(H1N1)). The experiment in a line: Antiinfluenza virus activity in mouse infected with influenza virus A/PR/8/34(H1N1) assessed as survival rate at 0.5 mg/kg administered intranasally after 21 days. Type of data set: functional, BALB/c.

Each structure is given as a SMILES string. ≈ marks a conversion by molar mass, not a printed value. Calls of active or inactive are those of the source. No cut-off for these calls is given here. Some results are limits rather than exact numbers.

With `COc1cc(O)c2c(=O)cc(-c3ccc(OC)c(-c4c(O[C@]5(C(=O)O)C[C@H](O)[C@@H](NC(C)=O)[C@H]([C@H](O)[C@H](O)CO)O5)cc(O)c5c(=O)cc(-c6ccc(O[C@]7(C(=O)O)C[C@H](O)[C@@H](NC(C)=O)[C@H]([C@H](O)[C@H](O)CO)O7)cc6)oc45)c3)oc2c1` (stereo in doubt; 9S), the IC50 turned out to be 6.99 µg/mL (≈ 6.08 µM) in data set [1], 0.94 µg/mL (≈ 0.818 µM) in data set [2] and 9.34 µg/mL (≈ 8.13 µM) in data set [3]. Besides, the Activity entry in the data set with MDCK is “Non-toxic”.

Take `COC(=O)[C@@]1(Oc2ccc(-c3cc(=O)c4c(O)cc(O[C@]5(C(=O)OC)C[C@H](OC(C)=O)[C@@H](NC(C)=O)[C@H]([C@H](OC(C)=O)[C@@H](COC(C)=O)OC(C)=O)O5)c(-c5cc(-c6cc(=O)c7c(O)cc(OC)cc7o6)ccc5OC)c4o3)cc2)C[C@H](OC(C)=O)[C@@H](NC(C)=O)[C@H]([C@H](OC(C)=O)[C@@H](COC(C)=O)OC(C)=O)O1` (stereo in doubt; 7R): in data set [2], the IC50 is 1.35 µg/mL (≈ 0.892 µM).

Regarding `COc1cc(O)c2c(=O)cc(-c3ccc(OC)c(-c4c(O[C@]5(C(=O)O)C[C@H](O)[C@@H](NC(C)=O)[C@H]([C@H](O)[C@H](O)CO)O5)cc(O)c5c(=O)cc(-c6ccc(O)cc6)oc45)c3)oc2c1` (stereo in doubt; 8R) [listing 1 of 2 here], in the data set on Influenza A virus [4], the outcome was Active.

Regarding `COc1cc(O)c2c(=O)cc(-c3ccc(OC)c(-c4c(O)cc(O)c5c(=O)cc(-c6ccc(O)cc6)oc45)c3)oc2c1` [GINKGETIN], the IC50 in data set [1] is 55 µg/mL (≈ 97.1 µM); in data set [2], 9.78 µg/mL (≈ 17.3 µM); in data set [3], > 100 µg/mL. Moreover, the Activity entry with MDCK was “Toxic”.

On to `COC(=O)[C@@]1(Oc2ccc(-c3cc(=O)c4c(O)cc(O[C@]5(C(=O)OC)C[C@H](OC(C)=O)[C@@H](NC(C)=O)[C@H]([C@H](OC(C)=O)[C@@H](COC(C)=O)OC(C)=O)O5)c(-c5cc(-c6cc(=O)c7c(O)cc(OC)cc7o6)ccc5OC)c4o3)cc2)C[C@H](OC(C)=O)[C@@H](NC(C)=O)[C@H]([C@H](OC(C)=O)[C@@H](COC(C)=O)OC(C)=O)O1` (stereo in doubt; 7S), for which the values for the IC50 in data set [1], in data set [2] and in data set [3] were > 100 µg/mL, > 10 µg/mL and > 100 µg/mL, respectively. In the data set with MDCK, the Activity entry was “Non-toxic”.

Turning to `COc1cc(O)c2c(=O)cc(-c3ccc(OC)c(-c4c(O[C@]5(C(=O)O)C[C@H](O)[C@@H](NC(C)=O)[C@H]([C@H](O)[C@H](O)CO)O5)cc(O)c5c(=O)cc(-c6ccc(O)cc6)oc45)c3)oc2c1` (stereo in doubt; 8S) [listing 1 of 2 here], the result in the data set with Influenza A virus [4] was Active.

On to `COC(=O)[C@@]1(Oc2cc(O)c3c(=O)cc(-c4ccc(O)cc4)oc3c2-c2cc(-c3cc(=O)c4c(O)cc(OC)cc4o3)ccc2OC)C[C@H](OC(C)=O)[C@@H](NC(C)=O)[C@H]([C@H](OC(C)=O)[C@@H](COC(C)=O)OC(C)=O)O1` (stereo in doubt; 6S), for which the IC50 in data set [1] is > 100 µg/mL; in data set [2] it was 1.1 µg/mL (≈ 1.06 µM); in data set [3], > 100 µg/mL.

For `COc1cc(O)c2c(=O)cc(-c3ccc(OC)c(-c4c(O[C@]5(C(=O)O)C[C@H](O)[C@@H](NC(C)=O)[C@H]([C@H](O)[C@H](O)CO)O5)cc(O)c5c(=O)cc(-c6ccc(O)cc6)oc45)c3)oc2c1` (stereo in doubt; 8S) [listing 2 of 2 here], the IC50 in data set [1] amounted to 6.35 µg/mL (≈ 7.4 µM); in data set [2], 0.99 µg/mL (≈ 1.15 µM); in data set [3], 8.64 µg/mL (≈ 10.1 µM). The Activity entry in the data set on MDCK is “Non-toxic”; with Influenza A virus [5], 78%; in data set [6] it was 56%.

With `COc1c(O)cc(O)c2c(=O)cc(-c3ccc(O)cc3)oc12` [4'-HYDROXYWOGONIN], the IC50 in data set [1] turned out to be 9.78 µg/mL (≈ 32.6 µM); in data set [2], 8.95 µg/mL (≈ 29.8 µM); in data set [3], 6.58 µg/mL (≈ 21.9 µM).

Take `COc1cc(O)c2c(=O)cc(-c3ccc(OC)c(-c4c(O[C@]5(C(=O)O)C[C@H](O)[C@@H](NC(C)=O)[C@H]([C@H](O)[C@H](O)CO)O5)cc(O)c5c(=O)cc(-c6ccc(O[C@]7(C(=O)O)C[C@H](O)[C@@H](NC(C)=O)[C@H]([C@H](O)[C@H](O)CO)O7)cc6)oc45)c3)oc2c1` (stereo in doubt; 9R): the IC50 in data set [1] was 6.61 µg/mL (≈ 5.75 µM); in data set [2], 6.57 µg/mL (≈ 5.72 µM); in data set [3] it was 9.05 µg/mL (≈ 7.88 µM).

For `COc1cc(O)c2c(=O)cc(-c3ccc(OC)c(-c4c(O[C@]5(C(=O)O)C[C@H](O)[C@@H](NC(C)=O)[C@H]([C@H](O)[C@H](O)CO)O5)cc(O)c5c(=O)cc(-c6ccc(O)cc6)oc45)c3)oc2c1` (stereo in doubt; 8R) [listing 2 of 2 here], the IC50 worked out at 5.5 µg/mL (≈ 6.41 µM) in data set [1], 0.82 µg/mL (≈ 0.956 µM) in data set [2] and 9.11 µg/mL (≈ 10.6 µM) in data set [3]. In addition, the Activity was determined as 75% with Influenza A virus [5] and 62.5% in data set [6].

For `COC(=O)[C@@]1(Oc2cc(O)c3c(=O)cc(-c4ccc(O)cc4)oc3c2-c2cc(-c3cc(=O)c4c(O)cc(OC)cc4o3)ccc2OC)C[C@H](OC(C)=O)[C@@H](NC(C)=O)[C@H]([C@H](OC(C)=O)[C@@H](COC(C)=O)OC(C)=O)O1` (stereo in doubt; 6R), the IC50 in data set [1] is 79.2 µg/mL (≈ 76.2 µM); in data set [2] it was > 10 µg/mL. The Activity result in the data set on MDCK was “Non-toxic”.

The values are drawn from ChEMBL document CHEMBL1138422, “Anti-influenza virus activity of biflavonoids” (Bioorg Med Chem Lett, 2007).
